Laboratory results reported in the supplement of paper PMC10307832.

Key:
Test in all cases: relative viability (nuclei count vs DMSO), 5 days (fraction); higher = more cells survive
201T = test system: 201T
Procedure, shortened: (§1)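 For relative viability, nuclei counts in treated wells were divided by those in vehicle wells. Lung cancer cell lines had been pin-tool dosed in 1536-well plates the day after seeding and cultured for 5 days, then fixed and stained in one step (final 0.05% Triton X-100, 1% formaldehyde, 1 ug/ml Hoechst) and imaged at 4×. Doses were one drug alone or a fixed anchor-drug dose plus five library-drug doses (not always all listed) in √10 steps, and values are duplicate-plate medians.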

COR-L23 = test system: COR-L23
Procedure, shortened: as §1

EKVX = test system: EKVX
Procedure, shortened: as §1

EPLC-272H = test system: EPLC-272H
Procedure, shortened: as §1

HCC-44 = test system: HCC-44
Procedure, shortened: as §1

LOU-NH91 = test system: LOU-NH91
Procedure, shortened: as §1

NCI-H1650 = test system: NCI-H1650
Procedure, shortened: as §1

NCI-H1734 = test system: NCI-H1734
Procedure, shortened: as §1

NCI-H1793 = test system: NCI-H1793
Procedure, shortened: as §1

NCI-H1993 = test system: NCI-H1993
Procedure, shortened: as §1

NCI-H2023 = test system: NCI-H2023
Procedure, shortened: as §1

NCI-H2085 = test system: NCI-H2085
Procedure, shortened: as §1

NCI-H2170 = test system: NCI-H2170
Procedure, shortened: as §1

NCI-H2347 = test system: NCI-H2347
Procedure, shortened: as §1

NCI-H2405 = test system: NCI-H2405
Procedure, shortened: as §1

NCI-H3122 = test system: NCI-H3122
Procedure, shortened: as §1

NCI-H441 = test system: NCI-H441
Procedure, shortened: as §1

NCI-H520 = test system: NCI-H520
Procedure, shortened: as §1

NCI-H647 = test system: NCI-H647
Procedure, shortened: as §1

PC-14 = test system: PC-14
Procedure, shortened: as §1

RERF-LC-KJ = test system: RERF-LC-KJ
Procedure, shortened: as §1

SW 900 = test system: SW 900
Procedure, shortened: as §1

## Clc1ccc(Nc2nnc(Cc3ccncc3)c3ccccc23)cc1 [Vatalanib] + CC(=O)Nc1cccc(-n2c(=O)n(C3CC3)c(=O)c3c(Nc4ccc(I)cc4F)n(C)c(=O)c(C)c32)c1 [Trametinib] (partner 0.02 µM)
201T; first compound 0.04 µM
  relative viability: 0.718
201T; first compound 0.1265 µM
  relative viability: 0.743
201T; first compound 0.4 µM
  relative viability: 0.75
201T; first compound 1.265 µM
  relative viability: 0.731
201T; first compound 4 µM
  relative viability: 0.735
COR-L23; first compound 0.04 µM
  relative viability: 0.606
COR-L23; first compound 0.1265 µM
  relative viability: 0.587
COR-L23; first compound 0.4 µM
  relative viability: 0.721
COR-L23; first compound 1.265 µM
  relative viability: 0.578
COR-L23; first compound 4 µM
  relative viability: 0.534
EKVX; first compound 0.04 µM
  relative viability: 0.274
EKVX; first compound 0.1265 µM
  relative viability: 0.409
EKVX; first compound 0.4 µM
  relative viability: 0.308
EKVX; first compound 1.265 µM
  relative viability: 0.351
EKVX; first compound 4 µM
  relative viability: 0.39
EPLC-272H; first compound 0.04 µM
  relative viability: 0.284
EPLC-272H; first compound 0.1265 µM
  relative viability: 0.247
EPLC-272H; first compound 0.4 µM
  relative viability: 0.327
EPLC-272H; first compound 1.265 µM
  relative viability: 0.264
EPLC-272H; first compound 4 µM
  relative viability: 0.268
HCC-44; first compound 0.04 µM
  relative viability: 1.06
HCC-44; first compound 0.1265 µM
  relative viability: 1.07
HCC-44; first compound 0.4 µM
  relative viability: 0.959
HCC-44; first compound 1.265 µM
  relative viability: 0.994
HCC-44; first compound 4 µM
  relative viability: 1.02
LOU-NH91; first compound 0.04 µM
  relative viability: 0.769
LOU-NH91; first compound 0.1265 µM
  relative viability: 0.764
LOU-NH91; first compound 0.4 µM
  relative viability: 0.794
LOU-NH91; first compound 1.265 µM
  relative viability: 0.746
LOU-NH91; first compound 4 µM
  relative viability: 0.765
NCI-H1650; first compound 0.04 µM
  relative viability: 0.598
NCI-H1650; first compound 0.1265 µM
  relative viability: 0.532
NCI-H1650; first compound 0.4 µM
  relative viability: 0.306
NCI-H1650; first compound 1.265 µM
  relative viability: 0.656
NCI-H1650; first compound 4 µM
  relative viability: 0.508
NCI-H1734; first compound 0.04 µM
  relative viability: 0.731
NCI-H1734; first compound 0.1265 µM
  relative viability: 0.673
NCI-H1734; first compound 0.4 µM
  relative viability: 0.705
NCI-H1734; first compound 1.265 µM
  relative viability: 0.655
NCI-H1734; first compound 4 µM
  relative viability: 0.684
NCI-H1793; first compound 0.04 µM
  relative viability: 0.372
NCI-H1793; first compound 0.1265 µM
  relative viability: 0.494
NCI-H1793; first compound 0.4 µM
  relative viability: 0.424
NCI-H1793; first compound 1.265 µM
  relative viability: 0.388
NCI-H1793; first compound 4 µM
  relative viability: 0.425
NCI-H1993; first compound 0.04 µM
  relative viability: 0.539
NCI-H1993; first compound 0.1265 µM
  relative viability: 0.452
NCI-H1993; first compound 0.4 µM
  relative viability: 0.54
NCI-H1993; first compound 1.265 µM
  relative viability: 0.459
NCI-H1993; first compound 4 µM
  relative viability: 0.49
NCI-H2023; first compound 0.04 µM
  relative viability: 0.5
NCI-H2023; first compound 0.1265 µM
  relative viability: 0.529
NCI-H2023; first compound 0.4 µM
  relative viability: 0.477
NCI-H2023; first compound 1.265 µM
  relative viability: 0.503
NCI-H2023; first compound 4 µM
  relative viability: 0.517
NCI-H2085; first compound 0.04 µM
  relative viability: 0.516
NCI-H2085; first compound 0.1265 µM
  relative viability: 0.384
NCI-H2085; first compound 0.4 µM
  relative viability: 0.645
NCI-H2085; first compound 1.265 µM
  relative viability: 0.484
NCI-H2085; first compound 4 µM
  relative viability: 0.735
NCI-H2170; first compound 0.04 µM
  relative viability: 0.926
NCI-H2170; first compound 0.1265 µM
  relative viability: 0.857
NCI-H2170; first compound 0.4 µM
  relative viability: 0.856
NCI-H2170; first compound 1.265 µM
  relative viability: 0.892
NCI-H2170; first compound 4 µM
  relative viability: 0.899
NCI-H2347; first compound 0.04 µM
  relative viability: 0.278
NCI-H2347; first compound 0.1265 µM
  relative viability: 0.277
NCI-H2347; first compound 0.4 µM
  relative viability: 0.279
NCI-H2347; first compound 1.265 µM
  relative viability: 0.266
NCI-H2347; first compound 4 µM
  relative viability: 0.309
NCI-H2405; first compound 0.04 µM
  relative viability: 0.696
NCI-H2405; first compound 0.1265 µM
  relative viability: 0.568
NCI-H2405; first compound 0.4 µM
  relative viability: 0.683
NCI-H2405; first compound 4 µM
  relative viability: 0.557
NCI-H3122; first compound 0.04 µM
  relative viability: 0.239
NCI-H3122; first compound 0.1265 µM
  relative viability: 0.229
NCI-H3122; first compound 0.4 µM
  relative viability: 0.238
NCI-H3122; first compound 1.265 µM
  relative viability: 0.244
NCI-H3122; first compound 4 µM
  relative viability: 0.212
NCI-H441; first compound 0.04 µM
  relative viability: 0.435
NCI-H441; first compound 0.1265 µM
  relative viability: 0.366
NCI-H441; first compound 0.4 µM
  relative viability: 0.476
NCI-H441; first compound 1.265 µM
  relative viability: 0.411
NCI-H441; first compound 4 µM
  relative viability: 0.421
NCI-H520; first compound 0.04 µM
  relative viability: 0.794
NCI-H520; first compound 0.1265 µM
  relative viability: 0.654
NCI-H520; first compound 0.4 µM
  relative viability: 0.766
NCI-H520; first compound 1.265 µM
  relative viability: 0.615
NCI-H520; first compound 4 µM
  relative viability: 0.602
NCI-H647; first compound 0.04 µM
  relative viability: 0.538
NCI-H647; first compound 0.1265 µM
  relative viability: 0.614
NCI-H647; first compound 0.4 µM
  relative viability: 0.581
NCI-H647; first compound 1.265 µM
  relative viability: 0.407
NCI-H647; first compound 4 µM
  relative viability: 0.499
PC-14; first compound 0.04 µM
  relative viability: 0.671
PC-14; first compound 0.1265 µM
  relative viability: 0.826
PC-14; first compound 0.4 µM
  relative viability: 0.991
PC-14; first compound 1.265 µM
  relative viability: 0.738
PC-14; first compound 4 µM
  relative viability: 0.6
RERF-LC-KJ; first compound 0.04 µM
  relative viability: 0.931
RERF-LC-KJ; first compound 0.1265 µM
  relative viability: 0.867
RERF-LC-KJ; first compound 0.4 µM
  relative viability: 0.903
RERF-LC-KJ; first compound 1.265 µM
  relative viability: 0.791
RERF-LC-KJ; first compound 4 µM
  relative viability: 0.782
SW 900; first compound 0.04 µM
  relative viability: 0.768
SW 900; first compound 0.1265 µM
  relative viability: 0.696
SW 900; first compound 0.4 µM
  relative viability: 0.558
SW 900; first compound 1.265 µM
  relative viability: 0.877
SW 900; first compound 4 µM
  relative viability: 0.714
